Test [1] relates to ovalbumin-immunized mouse splenocytes. Put plainly: Ovalbumin-immunized mouse splenocytes (oral dosing): OVA-specific growth response, MTT. It is filed as in vivo, Balb/c mice. As to conditions: 100 mg/kg orally for two weeks; splenocytes cultured with 10 ug/ml OVA 3 days; non-sensitized taken as 1 (sensitized 0.5% MC control 2.07). The procedure: Method: Seven-week-old made Balb/c mice (Charles River Japan) were used. Mice were immunized i.p. with 1 ug ovalbumin (OVA, albumin chicken egg grade III; Sigma, USA) in aluminium hydroxide hydrate gel suspension (Alum, ISL Co., Ltd., Japan) twice at an unterval of a week. Two weeks after first immunization, spleens were asceptically removed, and single cell suspension was prepared in RPMI-1640 (Bio Whittaker, Inc., USA) containing 10% heat-inactivated fetal calf serum (FCS, Bio Whittaker, Inc., USA), 50 uM 2-mercaptoethanol, 2 mM L-glutamine, and 20 ug/ml gentamicin. Compound 1((+)-7-(3,5,6-trimethyl-1,4-benzoquino-2-yl)-7-phenylheptonoic acid) at 100 mg/kg suspended with 0.5% methyl cellulose (MC) was given orally in a volume of 10 ml/kg for two weeks from a day before first immunization. […]
To study the effect of drug on the proliferation, 50 ul of 3 mg/ml 3(4,5-dimethylthiazol-2-yl)-2,5-diphenyltetrazolium bromide (MTT, Dojinedo Labs., Japan) resolved in phosphate buffered saline (PBS) was added into each well for final 6 hours of culture. The culture was completed by added 50 ul of 10% SDS resolved into 0.1 N HCl solution and after kept in 37°C for 18 hours, the absorbance at 620 nm was measured.

The test system of test [2] is IL-4. Put plainly: Ovalbumin-immunized mouse splenocytes (oral dosing): IL-4 production, ELISA. The note with it: 100 mg/kg orally for two weeks, 10 ug/ml OVA 3 days. It is filed as in vivo, Balb/c mice. The protocol: (§1) Method: Seven-week-old made Balb/c mice (Charles River Japan) were used. Mice were immunized i.p. with 1 ug ovalbumin (OVA, albumin chicken egg grade III; Sigma, USA) in aluminium hydroxide hydrate gel suspension (Alum, ISL Co., Ltd., Japan) twice at an unterval of a week. Two weeks after first immunization, spleens were asceptically removed, and single cell suspension was prepared in RPMI-1640 (Bio Whittaker, Inc., USA) containing 10% heat-inactivated fetal calf serum (FCS, Bio Whittaker, Inc., USA), 50 uM 2-mercaptoethanol, 2 mM L-glutamine, and 20 ug/ml gentamicin. Compound 1((+)-7-(3,5,6-trimethyl-1,4-benzoquino-2-yl)-7-phenylheptonoic acid) at 100 mg/kg suspended with 0.5% methyl cellulose (MC) was given orally in a volume of 10 ml/kg for two weeks from a day before first immunization. Splenocytes (3.3 × 10^6 cells) were cultured with 10 ug/ml OVA in […] wells of a 96-well round-bottomed tissue culture plate (Sumitomo Bakelite Co., Ltd., Japan) and were kept in a humidified incubation at 37°C in 5% CO2 in air for three days.
(§2) To study the effect of the drug on the cytokine production, after centrifuged at 200×g for 5 minutes, the supernatant of the culture well was removed and its IL-4 and IL-5 contents were measured by ELISA kits (Endogen, USA).
A general note: An ELISA detects its analyte on a solid surface through an enzyme-linked reagent.

In test [3] the test system is ascaris-immunized mouse splenocytes. Nature of the test: Ascaris-immunized mouse splenocytes (in vivo dosing): DNP-ascaris specific growth response, MTT. More on the design: species or system Balb/c mice. The note with it: 100 mg/kg/day orally 5 times weekly for 3 weeks; splenocytes cultured with 12.5 µg/ml DNP-ascaris 3 days; absorbance of non-sensitized splenocytes taken as 1 (sensitized 0.5% MC control 5.52). The procedure: Method: Female Balb/c mice at 9 weeks of age (purchased from Shizuoka Laboratory Animal Center, Japan) were intraperitoneally administered 40 µg/mouse DNP-ascaris (2,4-dinitrophenylated ascaris extract, produced by LSL) together with Freund's complete adjuvant (FCA, produced by Difco, USA), 3 weeks later, splenocytes were collected. The compound 1((±)-7-(3,5,6-trimethyl-1,4-benzoquino-2-yl)-7-phenylheptonoic acid) was suspended in 0.5% methyl cellulose (MC) and orally administered at 100 mg/kg/day 5 times weekly for 3 weeks, starting at the day before DNP-ascaris administration. After final oral administration, the splenocyte mixture was prepared from the spleens of 5 animals per group, and suspended in RPMI-1640 medium (produced by Bio Whittaker, Inc., USA) containing inactivated fetal bovine serum (10% v/v, produced by Difco, USA), 2-mercaptoethanol (50 µM), L-glutamine (2 mM) and gentamicin (20 µg/ml) to yield a single cell suspension. After cell number was set to 3.3 × 10^6 cells/ml, DNP-ascaris was added to 96-well round-bottomed plates (produced by Sumitomo Bakelite Co., Ltd., Japan) at 12.5 µg/ml, and cultured at 37°C for 3 days in an incubator containing 5% carbon dioxide. […] To this culture, a 10% SDS-0.01N HCl mixture was added at 50 µl per well, followed by incubation in the carbon dioxide incubator for 18 hours, after which absorbance at 620 nm was determined.

A further test relates to IL-5 mRNA. Nature of the test: IL-5 mRNA expression in ovalbumin-immunized mouse splenocytes (oral dosing), RT-PCR. It is filed as in vivo, Balb/c mice. The note with it: 10 and 100 mg/kg orally for two weeks; splenocytes cultured with 10 ug/ml OVA for 4, 7 and 24 hours; Fig. 1. The procedure: Method: Eight-week-old male Balb/c mice (Charles River Japan) immunized i.p. with 1 ug OVA absorbed to 1 mg Alum twice at an unterval of a week. Two weeks after the first immunization, splenocytes were prepared in RPMI-1640 (BioWhittaker, Inc., USA) containing 10% heat-inactivated fetal bovine serum (FBS, Bio Whittaker, Inc., USA), 50 uM 2-mercaptoethanol, 2 mM L-glutamine, and 20 ug/ml gentamicin. Compound 1 ((±)-7-(3,5,6-trimethyl-1,4-benzoquino-2-yl)-7-phenylheptonoic acid) at 10 and 100 mg/kg suspended with 0.5% methyl cellulose (MC) was given orally in a volume of 20 ml/kg for two weeks from a day before first immunization. […] Following the heat inactivation at 95°C for 10 min, one fifth of the cDNA mixtures was amplified by Ex Taq DNA polymerase (Takara Shuzoh, Japan) with the appropriate oligonucleatide primers (mouse IL-5 and β-actin amplimer set (Clontech). A DNA Thermal Cycler (Perkin Elmer) was used for 50 DNA amplification cycles, with a denaturation step at 95°C for 1 min, an annealing step at 55°C for 2 min, and an extension step at 72°C for 3 min. Twenty percent of the amplified DNA was analyzed by electrophoresis in a 2% GTG agarose gel. After staining with ethidium bromide, the DNA band was photographed under UV light. The data of the negatives were analyzed by NIH Image 1.55 software. […]

The subject of test [4] is IL-4. Nature of the test: Ascaris-immunized mouse splenocytes (in vivo dosing): IL-4 production, ELISA. The arrangement: species or system Balb/c mice. As to conditions: 100 mg/kg/day orally 5 times weekly for 3 weeks; splenocytes cultured with 40 µg/ml DNP-ascaris 3 days; non-sensitized taken as 1 (sensitized 0.5% MC control 15.8). The procedure: (§3) Method: Female Balb/c mice at 9 weeks of age (purchased from Shizuoka Laboratory Animal Center, Japan) were intraperitoneally administered 40 µg/mouse DNP-ascaris (2,4-dinitrophenylated ascaris extract, produced by LSL) together with Freund's complete adjuvant (FCA, produced by Difco, USA), 3 weeks later, splenocytes were collected. The compound 1((±)-7-(3,5,6-trimethyl-1,4-benzoquino-2-yl)-7-phenylheptonoic acid) was suspended in 0.5% methyl cellulose (MC) and orally administered at 100 mg/kg/day 5 times weekly for 3 weeks, starting at the day before DNP-ascaris administration. […] To this culture, a 10% SDS-0.01N HCl mixture was added at 50 µl per well, followed by incubation in the carbon dioxide incubator for 18 hours, after which absorbance at 620 nm was determined.
(§4) Next, DNP-ascaris was added to a 1.2 × 10^6 cells/ml splenocyte suspension in each 96-well round-bottomed plate at 40 µg/ml and cultured at 37°C for 3 days in the 5% carbon dioxide incubator. After this culture was centrifuged at 200 x g for 5 minutes, the culture supernatant was collected, and, the amounts of IL-4 and IL-5 produced in each supernatant were determined by ELISA [mouse IL-4 ELISA kit (produced by Endogen, USA); mouse IL-5 ELISA kit (produced by Endogen, USA)].

Test [5] concerns IL-5. Put plainly: Ascaris-immunized mouse splenocytes (in vivo dosing): IL-5 production, ELISA. More on the design: species or system Balb/c mice. The note with it: 100 mg/kg/day orally 5 times weekly for 3 weeks; splenocytes cultured with 40 µg/ml DNP-ascaris 3 days; non-sensitized taken as 1 (sensitized 0.5% MC control 43.3). The procedure:
as §3, §4

Test [6] has as its system ascaris-immunized mouse splenocytes. Nature of the test: Ascaris-immunized mouse splenocytes (in vitro): DNP-ascaris stimulated growth, MTT. In kind it is cell-based, Balb/c mice. The note with it: Splenocyte, 72 h, 25 µM test drug, 12.5 µg/ml DNP-ascaris, 3 days, absorbance in absence of compound taken as 100%, read-out: Suppression Rate (%) MTT. The protocol: (§5) Method: Female Balb/c mice at 9 weeks of age (purchased from Shizuoka Laboratory Animal Center, Japan) were intraperitoneally administered 40 µg/mouse DNP-ascaris (2,4-dinitrophenylated ascaris extract, produced by LSL), together with Freund's complete adjuvant (FCA, produced by Difco, USA), and, 3 weeks later, splenocytes were collected. Splenocyte mixture was prepared from the spleens and suspended in RPMI-1640 medium (produced by Bio Whittaker, Inc., USA) containing inactivated fetal bovine serum (10% v/v, produced by Difco, USA), 2-mercaptoethanol (50 µM), L-glutamine (2 mM) and gentamicin (20 µg/ml) to yield a single cell suspension. After cell number was set to 3.3 × 10^6 cells/ml, DNP-ascaris was added to 96-well round-bottomed plates (produced by Sumitomo Bakelite Co., Ltd., Japan) containing a 25 µM test drug, at 12.5 µg/ml, and cultured at 37°C for 3 days in a 5% carbon dioxide incubator. After completion of cultivation, 3-(4,5-dimethylthiazol-2-yl)-2,5-diphenyl-tetrazolium bromide (MTT, produced by Dojin Kenkyujo, Japan) in PBS buffer was added to each well at 0.86 mg/ml, followed by cultivation in the carbon dioxide incubator for 6 hours. To this culture, a 10% SDS-0.01 N HCl mixture was added at 50 µl per well, followed by incubation in the carbon dioxide incubator for 18 hours, after which absorbance at 620 nm was determined.

In test [7] the test system is IL-5. Nature of the test: Ovalbumin-immunized mouse splenocytes (oral dosing): IL-5 production, ELISA. In kind it is in vivo, Balb/c mice. As to conditions: 100 mg/kg orally for two weeks, 10 ug/ml OVA 3 days. The procedure: as §1, §2
In test [8] the test system is IL-4. Put plainly: Ascaris-immunized mouse splenocytes (in vitro): IL-4 production, ELISA. It is filed as cell-based, Balb/c mice. The note with it: Splenocyte, 72 h, 25 µM drug, 40 µg/ml DNP-ascaris, 3 days, production in absence of compound taken as 100%, read-out: Suppression Rate (%) IL-4. The protocol:
as §5
Next, DNP-ascaris was added to a 1.2 × 10^6 cells/ml splenocyte suspension in each 96-well round-bottomed plate containing a drug (25 µM), at 40 µg/ml, and cultured at 37°C for 3 days in the 5% carbon dioxide incubator. After this culture was centrifuged at 200 x g for 5 minutes, the culture supernatant was collected, and, the amount of IL-4 produced in each supernatant was determined by ELISA [mouse IL-4 ELISA kit (produced by Endogen, USA)].

`CC1=C(C)C(=O)C(C(CCCCCC(=O)O)c2ccccc2)=C(C)C1=O` (racemic) [Compound 1, (±)-7-(3,5,6-trimethyl-1,4-benzoquinon-2-yl)-7-phenylheptanoic acid]: the “OVA-Specific Growth Response, Relative Value” in test [1] is on record as 1.75. The “Cytokine Production, Relative Value Exp. 1 IL-4” value in the test with IL-4 [2] (Exp. 1, non-sensitized taken as 1 (sensitized 0.5% MC control 24.7)) is given as 7.7. In the test on IL-4 [2] (Exp. 2, non-sensitized taken as 1 (sensitized 0.5% MC control 14.2)), the “Cytokine Production, Relative Value Exp. 2 IL-4” value was determined as 6.94. Besides, the “DNP-ascaris Specific Growth Response, Relative Value” in test [3] came out at 3.37. Further, the “antigen-stimulated IL-5 mRNA expression (ratio to β-actin PCR product)” value with IL-5 mRNA was “inhibits antigen-stimulated IL-5 mRNA expression”. Also, in the test on IL-4 [4], the “Cytokine Production, Relative Value IL-4” value turned out to be 9.21. Also, the “Cytokine Production, Relative Value IL-5” value with IL-5 [5] came out at 13.6. Further, the inhibition at 25 µM stood at 44% in test [6] and 15% in the test on IL-4 [8]. The “Cytokine Production, Relative Value Exp. 1 IL-5” value with IL-5 [7] (Exp. 1, non-sensitized taken as 1 (sensitized 0.5% MC control 7.3)) amounted to 4.8. Moreover, the “Cytokine Production, Relative Value Exp. 2 IL-5” value in the test with IL-5 [7] (Exp. 2, non-sensitized taken as 1 (sensitized 0.5% MC control 31.8)) was determined as 21.7.

Regarding `CC1=C(C)C(=O)C(C(CCCCCCC(=O)O)c2ccccc2)=C(C)C1=O` (stereo not drawn) [Compound 2], the inhibition at 25 µM is 40% in test [6] and 38% in the test on IL-4 [8].

Take `CC1=C(C)C(=O)C(C(CCC(=O)O)c2ccccc2)=C(C)C1=O` (stereo not drawn) [Compound 3]: the inhibition at 25 µM turned out to be 36% in [6] and 38% with IL-4 [8].

`CC1=C(C)C(=O)C(C(CCCCCCCCC(=O)O)c2ccccc2)=C(C)C1=O` (stereo not drawn) [Compound 4]: the figures for the inhibition at 25 µM (in test [6]; with IL-4 [8]) were 60% and 87%, respectively.

As for `COC1=C(OC)C(=O)C(C(CCCCCO)c2ccc(OC)cc2)=C(C)C1=O` (stereo not drawn) [Compound 5], the results for the inhibition at 25 µM (in test [6]; in the test on IL-4 [8]) were 46% and 80%, respectively.

In the case of `COC1=C(OC)C(=O)C(C(CCCCCC(=O)O)c2ccc(C(C)C)cc2)=C(C)C1=O` (stereo not drawn) [Compound 6], the inhibition at 25 µM is 33% in test [6] and 57% with IL-4 [8].
